ChEMBL document CHEMBL1124733, “Synthesis and cardiac electrophysiological activity of N-substituted-4-(1H-imidazol-1-yl)benzamides--new selective class III agents” (J Med Chem, 1990)
Several values for one entry are separate records, joined by “and”; a condition that tells them apart may be missing. Equal values may be shown once.

Tests used:
Canis familiaris [1] = species on record: Canis familiaris; experiment: Percent change in action potential duration at 95% repolarization and 10 uM in isolated canine cardiac Purkinje fibres.; format: functional, Canis lupus familiaris, Purkinje fiber
Canis familiaris [2] = experiment: Percent change in heart rate from control at 10 mg/kg, id; format: functional, Canis lupus familiaris; details: route intraduodenal
Canis familiaris [3] = species on record: Canis familiaris; experiment: Maximum observed percent change in action potential duration (APD) at 95% repolarization at 100 uM using standard microelectrode technique in isolated canine cardiac Purkinje fibers; format: functional, Canis lupus familiaris, Purkinje fiber
Canis familiaris [4] = experiment: Effective dose with the number of animals in PES efficacy model of conscious dog; Not effective in one animal; format: functional, Canis lupus familiaris
Canis familiaris [5] = experiment: Number of animals in which sustained ventricular tachycardia or ventricular fibrillation was not inducible after drug administration among the number of animals tested (9) in PES efficacy model of anesthetized dog; format: functional, Canis lupus familiaris, Cardiac ventricle
Canis familiaris [6] = experiment: Effective dose with the number of animals in PES efficacy model of anesthetized dog; Not effective in one animal; format: functional, Canis lupus familiaris
[7] = Maximum observed percent change in Vmax and the concentration at which it was observed was determined at 30 uM; Minimal; format: ADME
Canis familiaris [8] = experiment: In vivo electrophysiology was given as change in Function refractory period at 30 mg/kg, id; format: functional, Canis lupus familiaris; details: route intraduodenal
[9] = Percent change in the Vmax at a 10 uM concentration of the test compound; Minimal; format: ADME
Canis familiaris [10] = species on record: Canis familiaris; experiment: Concentration which caused a 20% increase in AP95 was determined.; format: functional, Canis lupus familiaris
Canis familiaris [11] = experiment: In vivo electrophysiology was given as change in Function refractory period at 3 mg/kg, iv; format: functional, Canis lupus familiaris
Canis familiaris [12] = experiment: Percent change in heart rate from control at 3 mg/kg, iv; format: functional, Canis lupus familiaris
Canis familiaris [13] = experiment: Percent change in heart rate from control at 30 mg/kg, id; format: functional, Canis lupus familiaris; details: route intraduodenal
[14] = Maximum observed percent change in Vmax and the concentration at which it was observed was determined at 100 uM; Minimal; format: ADME
Canis familiaris [15] = experiment: Number of animals in which sustained ventricular tachycardia or ventricular fibrillation was not inducible after drug administration among the number of animals tested (5) in PES efficacy model of anesthetized dog; format: functional, Canis lupus familiaris, Cardiac ventricle
Canis familiaris [16] = experiment: In vivo electrophysiology was given as change in Function refractory period at 10 mg/kg, id; format: functional, Canis lupus familiaris; details: route intraduodenal
Canis familiaris [17] = species on record: Canis familiaris; experiment: Maximum observed percent change in action potential duration (APD) at 95% repolarization at 30 uM using standard microelectrode technique in isolated canine cardiac Purkinje fibers; format: functional, Canis lupus familiaris, Purkinje fiber
Canis familiaris [18] = species on record: Canis familiaris; experiment: Maximum observed percent change in action potential duration (APD) at 95% repolarization at 10 uM using standard microelectrode technique in isolated canine cardiac Purkinje fibers; format: functional, Canis lupus familiaris, Purkinje fiber
Canis familiaris [19] = species on record: Canis familiaris; experiment: Concentration which caused a 20% increase in AP95 was determined.; Not reached; format: functional; details: Canis lupus familiaris
[20] = Maximum observed percent change in Vmax and the concentration at which it was observed was determined at M[30] uM; Minimal; format: ADME
[21] = Maximum observed percent change in Vmax and the concentration at which it was observed was determined; Minimal; format: ADME
[22] = Maximum observed percent change in Vmax and the concentration at which it was observed was determined at 100 uM; format: ADME
[23] = Maximum observed percent change in Vmax and the concentration at which it was observed was determined at 10 uM; Minimal; format: ADME
[24] = Percent change in the Vmax at a 10 uM concentration of the test compound; format: ADME
[25] = Maximum observed percent change in Vmax and the concentration at which it was observed was determined at 10 uM; format: ADME
[26] = Maximum observed percent change in Vmax and the concentration at which it was observed was determined at 50 uM; Minimal; format: ADME
Canis familiaris [27] = species on record: Canis familiaris; experiment: Maximum observed percent change in action potential duration (APD) at 95% repolarization at 1 uM using standard microelectrode technique in isolated canine cardiac Purkinje fibers; format: functional, Canis lupus familiaris, Purkinje fiber
Canis familiaris [28] = experiment: Number of animals in which sustained ventricular tachycardia or ventricular fibrillation was not inducible after drug administration among the number of animals tested (6) in PES efficacy model of anesthetized dog; format: functional, Canis lupus familiaris, Cardiac ventricle
Canis familiaris [29] = experiment: Effective dose with the number of animals in PES efficacy model of conscious dog; format: functional, Canis lupus familiaris
Canis familiaris [30] = experiment: Effective dose with the number of animals in PES efficacy model of conscious dog; Not effective in two animals; format: functional, Canis lupus familiaris
Canis familiaris [31] = experiment: Effective dose with the number of animals in PES efficacy model of anesthetized dog; format: functional, Canis lupus familiaris
Canis familiaris [32] = experiment: Number of animals in which sustained ventricular tachycardia or ventricular fibrillation was not inducible after drug administration among the number of animals tested (4) in PES efficacy model of anesthetized dog; format: functional, Canis lupus familiaris, Cardiac ventricle
Canis familiaris [33] = species on record: Canis familiaris; experiment: Maximum observed percent change in action potential duration (APD) at 95% repolarization at 3 uM using standard microelectrode technique in isolated canine cardiac Purkinje fibers; format: functional, Canis lupus familiaris, Purkinje fiber
Canis familiaris [34] = species on record: Canis familiaris; experiment: Concentration which caused a 20% increase in AP95 was determined. Lowest and highest values given in brackets; not reached; format: functional; details: Canis lupus familiaris

SMILES	max Delta Vmax [7]	Delta Vmax [9]	max Delta Vmax [14]	Delta APD95 (Canis familiaris [1])	Max delta APD95 (Canis familiaris [3])	C20 APD95 (Canis familiaris [10])	Max delta APD95 (Canis familiaris [17])	Max delta APD95 (Canis familiaris [18])	C20 APD95 (Canis familiaris [19])	other results
O=C(NCCN(Cc1ccccc1)Cc1ccccc1)c1ccc(-n2ccnc2)cc1	Minimal	Minimal	–	6%	–	–	6.5%	–	Not reached	–
CCN(CC)CCCNC(=O)c1ccc(-n2ccnc2)cc1.Cl.Cl	–	–	–	40%	–	3 µM	48%	–	–	–
CCN(CC)[C@H]1CCCCC1NC(=O)c1ccc(-n2ccnc2)cc1.Cl (stereo not given in full)	–	Minimal	–	60%	85%	1.2 µM	–	–	–	Max delta [22]: -46%
CCN(CC)CCN(Cc1ccccc1)C(=O)c1ccc(-n2ccnc2)cc1	Minimal	Minimal	–	65%	–	0.5 µM	65%	–	–	–
CN1CCN(C(=O)c2ccc(-n3ccnc3)cc2)CC1.Cl.Cl	Minimal	Minimal	–	32%	–	3.7 µM	55%	31%	–	max Delta Vmax [23]: Minimal
O=C(NC1CCN(Cc2ccccc2)CC1)c1ccc(-n2ccnc2)cc1	Minimal	Minimal	–	75%	–	0.7 µM	97%	–	–	–
CS(=O)(=O)O.O=C(c1ccc(-n2ccnc2)cc1)N1CCN(Cc2ccccc2)CC1	Minimal	Minimal	–	46%	–	0.9 µM	–	46%	–	–
CCN1CCCC1CNC(=O)c1ccc(-n2ccnc2)cc1.Cc1ccc(S(=O)(=O)O)cc1 (stereo not given)	–	–	Minimal	39%	72%	3 µM	–	–	–	max Delta Vmax [22]: -26%; Delta Vmax [24]: -13%
CN1CCN(S(=O)(=O)c2ccc(-n3ccnc3)cc2)CC1	–	Minimal	Minimal	9%	–	39 µM	14%	24%	Not reached	max Delta Vmax [25]: -23%
Cl.O=C(NCCNCc1ccccc1)c1ccc(-n2ccnc2)cc1	–	Minimal	–	41%	59%	1.2 µM	–	41%	–	max Delta Vmax [22]: -11%; max Delta Vmax [26]: Minimal
CCN(CC)CCN(C(=O)c1ccc(-n2ccnc2)cc1)c1cccc2ccccc12	-31%	–	–	28%	–	0.4 µM	–	46%	Not reached	Max delta APD95 (Canis familiaris [27]): 39% and 18% and 24%; Delta Vmax [24]: -14%
O=C(c1ccc(-n2ccnc2)cc1)N1CCNCC1	–	Minimal	–	17%	–	10.5 µM	28%	–	Not reached	Max delta [7]: Minimal
O=C(NC1CCNCC1)c1ccc(-n2ccnc2)cc1	–	Minimal	–	5%	–	–	–	–	–	Max delta APD95 (Canis familiaris [33]): 10%; Max delta [7]: Minimal; C20 APD95 (Canis familiaris [34]): Not reached

Second part, led by results:

max Delta Vmax [7]	Delta Vmax [9]	max Delta Vmax [14]	SMILES	Delta APD95 (Canis familiaris [1])	Max delta APD95 (Canis familiaris [3])	C20 APD95 (Canis familiaris [10])	Max delta APD95 (Canis familiaris [17])	Max delta APD95 (Canis familiaris [18])	C20 APD95 (Canis familiaris [19])	other results
Minimal	Minimal	Minimal	CCN(CC)CCNC(=O)c1ccc(NS(C)(=O)=O)cc1.Cl [SEMATILIDE HYDROCHLORIDE]	31%	65%	4.4 µM	51%	–	–	HR (Canis familiaris [2]): -17; Effective dose (Canis familiaris [4]): 10 mg/kg; No. effective (Canis familiaris [5]): 8; Effective dose (Canis familiaris [6]): 3 mg/kg; FRP (Canis familiaris [8]): 18%; FRP (Canis familiaris [11]): 19%; HR (Canis familiaris [12]): -23; HR (Canis familiaris [13]): -17; No. effective (Canis familiaris [15]): 4; FRP (Canis familiaris [16]): 15%
–	Minimal	Minimal	CCN(CC)CCNC(=O)c1ccc(-n2ccnc2C)cc1.CS(=O)(=O)O	4%	16%	–	–	13%	Not reached	max Delta Vmax [20]: Minimal
–	Minimal	–	Cl.NCCNC(=O)c1ccc(-n2ccnc2)cc1	1%	13%	–	–	10%	Not reached	max Delta Vmax [21]: Minimal
–	Minimal	–	CCN(CC)CCNC(=O)c1ccc(-c2ncc[nH]2)cc1.Cl.Cl	7%	31%	65 µM	–	–	–	max Delta Vmax [22]: -14%
Minimal	Minimal	Minimal	CCN(CC)CCNC(=O)c1cccc(-n2ccnc2)c1.Cl.Cl	27%	–	4 µM	60%	50%	–	–
Minimal	Minimal	Minimal	CCN(CC)CCNC(=O)c1ccc(-n2ccnc2)cc1.Cl.Cl	34%	56%	2.9 µM	52.5%	–	–	No effective/ no. tested (Canis familiaris [28]): 4; HR (Canis familiaris [2]): -15; Effective dose (Canis familiaris [29]): 0.3 mg/kg; Effective dose (Canis familiaris [30]): 3 mg/kg; Effective dose (Canis familiaris [6]): 10 mg/kg; FRP (Canis familiaris [8]): 19%; Effective dose (Canis familiaris [31]): 1 mg/kg; FRP (Canis familiaris [11]): 13%; HR (Canis familiaris [12]): -18; HR (Canis familiaris [13]): -29; No. effective (Canis familiaris [32]): 3; FRP (Canis familiaris [16]): 12%
